Source: US20090191193A1, “Aryl Vinyl Sulfides, Sulfones, Sulfoxides and Sulfonamides, Derivatives Thereof and Therapeutic Uses Thereof” (TEMPLE UNIVERSITY-OF THE COMMONWEALTH SYSTEM OF HIGHER …, priority 2006, published 2009)

Experiments:
[1] = system: K562 (chronic myelogenous leukaemia); experiment: Effect on tumor cell lines, viable cell count by trypan blue exclusion (Latham et al.): K562; format: cell-based; details: K562 chronic myelogenous leukaemia cells, viable cell count 96 hours after treatment
DU145 (prostate cancer) = experiment: Effect on tumor cell lines, viable cell count by trypan blue exclusion (Latham et al.): DU145; format: cell-based; details: DU145 prostate cancer cells, viable cell count 96 hours after treatment

Structure (SMILES) | IC50 ([1]; Homo sapiens, K562, 96 h) [µM] | IC50 (DU145 (prostate cancer); Homo sapiens, DU-145, 96 h) [µM] | melting point [°C] | IC50 [1] [µM] | IC50 (DU145 (prostate cancer)) [µM]
N#C/C(=C\c1ccccc1Cl)S(=O)(=O)Cc1ccccc1 [Example 130] | > 100 | > 100 | 155 to 160 | – | –
COc1ccc(/C=C(\C#N)S(=O)(=O)Cc2ccccc2)c(OC)c1 [Example 132] | > 100 | > 100 | 125 to 130 | – | –
COc1ccc(OC)c(/C=C(\C#N)S(=O)(=O)Cc2ccccc2)c1 [Example 135] | > 100 | > 100 | 140 to 143 | – | –
N#C/C(=C\c1ccc(O)c([N+](=O)[O-])c1)S(=O)(=O)Cc1ccccc1 [Example 139] | 50 to 100 | > 100 | 159 to 162 | – | –
COc1ccc(/C=C(\C#N)S(=O)(=O)Cc2ccc(OC)cc2)cc1 [Example 141] | > 100 | > 100 | 163 to 167 | – | –
N#C/C(=C\c1ccc(F)cc1F)S(=O)(=O)Cc1ccccc1 [Example 142] | > 100 | > 100 | 133 to 135 | – | –
N#C/C(=C\c1ccccc1Cl)S(=O)(=O)Cc1ccc(F)cc1 [Example 145] | > 100 | > 100 | 159 to 163 | – | –
COc1ccc(CS(=O)(=O)/C(C#N)=C/c2ccc(OC)cc2OC)cc1 [Example 147] | > 100 | > 100 | 156 to 160 | – | –
COc1ccc(CS(=O)(=O)/C(C#N)=C/c2cc(OC)cc(OC)c2)cc1 [Example 149] | 50 to 100 | > 100 | 135 to 140 | – | –
COc1ccc(NS(=O)(=O)/C(C#N)=C/c2c(OC)cc(OC)cc2OC)cc1 [Example 191] | – | – | 134 to 136 | 1 to 10 | 1 to 10
COc1ccc(/C=C(\C#N)S(=O)(=O)Nc2ccc(Cl)cc2)cc1 [Example 195] | 50 to 100 | 50 to 100 | 94 to 96 | – | –
N#C/C(=C\c1ccc(Br)cc1)S(=O)(=O)Nc1ccccc1Oc1ccccc1 [Example 196] | 50 to 100 | 50 to 100 | 129 to 134 | – | –
N#C/C(=C\c1c[nH]c2ccccc12)S(=O)(=O)Nc1ccccc1Oc1ccccc1 [Example 197] | 50 to 100 | 50 to 100 | 210 to 212 | – | –
Cc1ccc(/C=C(\C#N)S(=O)(=O)Nc2ccccc2Oc2ccccc2)s1 [Example 198] | 50 to 100 | 50 to 100 | 141 to 143 | – | –
COc1ccccc1/C=C(\C#N)S(=O)(=O)Nc1ccccc1Oc1ccccc1 [Example 199] | 50 to 100 | > 100 | 116 to 118 | – | –
COc1ccc(NS(=O)(=O)/C(C#N)=C/c2ccc(F)cc2)cc1 [Example 200] | 50 to 100 | > 100 | 107 to 109 | – | –
COc1ccc(NS(=O)(=O)/C(C#N)=C/c2ccccc2OC)cc1 [Example 204] | 50 to 100 | > 100 | 133 to 135 | – | –
CN(C)c1ccc(/C=C(\C#N)S(=O)(=O)Nc2ccccc2Oc2ccccc2)cc1 [Example 206] | > 100 | > 100 | 158 to 160 | – | –
N#C/C(=C\c1ccc(Cl)cc1)S(=O)(=O)Nc1ccccc1Oc1ccccc1 [Example 207] | 50 to 100 | 50 to 100 | 136 to 138 | – | –
N#C/C(=C\c1ccc(O)c([N+](=O)[O-])c1)S(=O)(=O)Nc1ccccc1Oc1ccccc1 [Example 209] | 50 to 100 | > 100 | 83 to 85 | – | –
COc1ccc(/C=C(\C#N)S(=O)(=O)Nc2ccc(Br)cc2)c(OC)c1OC [Example 218] | 50 to 100 | > 100 | 146 to 148 | – | –
CCOc1ccc(/C=C(\C#N)S(=O)(=O)Nc2ccc(Br)cc2)cc1OC [Example 219] | 50 to 100 | 50 to 100 | 188 to 190 | – | –
N#C/C(=C\c1ccc(O)c([N+](=O)[O-])c1)S(=O)(=O)Nc1ccc(Br)cc1 [Example 223] | > 100 | > 100 | > 250 | – | –
Cc1ccsc1/C=C(\C#N)S(=O)(=O)Nc1ccc(Br)cc1 [Example 224] | 50 to 100 | 50 to 100 | 176 to 179 | – | –
COc1ccccc1/C=C(\C#N)S(=O)(=O)Nc1ccc(Br)cc1 [Example 225] | 50 to 100 | 50 to 100 | 187 to 189 | – | –

Further lines, results first:

IC50 ([1]; Homo sapiens, K562, 96 h) [µM] | IC50 (DU145 (prostate cancer); Homo sapiens, DU-145, 96 h) [µM] | melting point [°C] | IC50 [1] [µM] | IC50 (DU145 (prostate cancer)) [µM] | Structure (SMILES)
50 to 100 | > 100 | 161 to 166 | – | – | COc1ccc(/C=C(\C#N)S(=O)(=O)Cc2ccccc2)c(F)c1 [Example 129]
50 to 100 | > 100 | 142 to 146 | – | – | COc1cc(/C=C(\C#N)S(=O)(=O)Cc2ccccc2)cc(OC)c1OC [Example 131]
50 to 100 | > 100 | 170 to 174 | – | – | COc1ccc(/C=C(\C#N)S(=O)(=O)Cc2ccccc2)cc1OC [Example 133]
10 to 25 | 50 to 100 | 152 to 156 | – | – | COc1cc(/C=C(\C#N)S(=O)(=O)Cc2ccccc2)cc(OC)c1 [Example 134]
1 to 10 | 25 to 50 | 126 to 129 | – | – | Cc1ccc(C)c(/C=C(\C#N)S(=O)(=O)Cc2ccccc2)c1 [Example 136]
50 to 100 | > 100 | 93 to 97 | – | – | N#C/C(=C\c1ccccc1OCc1ccccc1)S(=O)(=O)Cc1ccccc1 [Example 137]
25 to 50 | > 100 | 148 to 150 | – | – | N#C/C(=C\c1cc(F)cc(F)c1)S(=O)(=O)Cc1ccccc1 [Example 143]
25 to 50 | > 100 | 143 to 147 | – | – | N#C/C(=C\c1ccccc1Cl)S(=O)(=O)Cc1ccc(Br)cc1 [Example 144]
25 to 50 | 50 to 100 | 136 to 138 | – | – | COc1ccc(CS(=O)(=O)/C(C#N)=C/c2ccc(Cl)c(Cl)c2Cl)cc1 [Example 146]
25 to 50 | 50 to 100 | 155 to 160 | – | – | COc1ccc(CS(=O)(=O)/C(C#N)=C/c2ccc(OC)c(OC)c2)cc1 [Example 148]
50 | 50 | 106 to 107 | – | – | COc1ccc(NS(=O)(=O)/C(C#N)=C/c2ccc(Br)cc2)cc1 [Example 190]
1 to 10 | 10 to 25 | 100 to 102 | – | – | COc1ccc(NS(=O)(=O)/C(C#N)=C/c2c(F)c(F)c(F)c(F)c2F)cc1 [Example 192]
1 to 10 | 1 to 10 | 112 to 114 | – | – | COc1ccc(NS(=O)(=O)/C(C#N)=C/c2c(F)c(F)c(F)c(F)c2F)cc1OS(=O)(=O)c1ccc(C)cc1 [Example 194, (E)-2-[(4-methoxy-3-(4-methylphenylsulfonyloxy)phenyl)sulfamoyl]-3-(2,3,4,5,6-pentafluorophenyl)acrylonitrile]
10 to 25 | 50 to 100 | 156 to 158 | – | – | COc1ccc(NS(=O)(=O)/C(C#N)=C/c2cc(OC)ccc2OC)cc1 [Example 202]
25 to 50 | 50 to 100 | 216 to 217 | – | – | N#C/C(=C\c1c[nH]c2ccccc12)S(=O)(=O)Nc1ccc(Cl)cc1 [Example 205]
25 to 50 | 50 to 100 | 154 to 156 | – | – | COc1cc(OC)c(/C=C(\C#N)S(=O)(=O)Nc2ccccc2Oc2ccccc2)c(OC)c1 [Example 208]
1 to 10 | 25 to 50 | 138 to 140 | – | – | N#C/C(=C\c1ccccc1Oc1ccccc1)S(=O)(=O)Nc1ccccc1Oc1ccccc1 [Example 210]
1 to 10 | 1 to 10 | 142 to 144 | – | – | CCOc1ccc(/C=C(\C#N)S(=O)(=O)Nc2ccccc2Oc2ccccc2)cc1OC [Example 211]
25 to 50 | 25 to 50 | 169 to 171 | – | – | N#C/C(=C\c1ccc(Cl)cc1)S(=O)(=O)Nc1ccc(Br)cc1 [Example 212]
25 to 50 | 25 to 50 | 128 to 130 | – | – | N#C/C(=C\c1ccccc1OCc1ccccc1)S(=O)(=O)Nc1ccc(Br)cc1 [Example 213]
25 to 50 | 50 to 100 | 208 to 210 | – | – | N#C/C(=C\c1c[nH]c2ccccc12)S(=O)(=O)Nc1ccc(Br)cc1 [Example 214]
10 to 25 | 25 to 50 | 197 to 199 | – | – | COc1cc(OC)c(/C=C(\C#N)S(=O)(=O)Nc2ccc(Br)cc2)c(OC)c1 [Example 215]
25 to 50 | 50 to 100 | 190 to 192 | – | – | CN(C)c1ccc(/C=C(\C#N)S(=O)(=O)Nc2ccc(Br)cc2)cc1 [Example 216]
25 to 50 | 50 to 100 | 174 to 176 | – | – | N#C/C(=C\c1ccc(Br)cc1)S(=O)(=O)Nc1ccc(Br)cc1 [Example 217]
< 1 | 1 to 10 | 174 to 176 | – | – | N#C/C(=C\c1c(F)c(F)c(F)c(F)c1F)S(=O)(=O)Nc1ccc(Br)cc1 [Example 221]
25 to 50 | 25 to 50 | 242 to 253 | – | – | N#C/C(=C\c1c[nH]c2ccc(Br)cc12)S(=O)(=O)Nc1ccc(Br)cc1 [Example 222]
25 to 50 | 25 to 50 | 165 to 166 | – | – | N#C/C(=C\c1ccc(F)cc1F)S(=O)(=O)Nc1ccc(Br)cc1 [Example 226]
25 to 50 | 50 to 100 | 192 to 194 | – | – | N#C/C(=C\c1ccccc1Cl)S(=O)(=O)Nc1ccc(Br)cc1 [Example 227]
25 to 50 | 25 to 50 | 169 to 170 | – | – | N#C/C(=C\c1ccccc1O)S(=O)(=O)Nc1ccc(Br)cc1 [Example 228]
